In brackets after ≈: the same amount, converted by molar mass.
These compounds were tested on THP1-Dual™ cells (IRF-Lucia luciferase reporter) (assay: THP1-Dual™ cell reporter assay). Settings: ADC: drug linker conjugated to targeted mAb, 48 h; some values average of multiple experiments.
Type: cell-based, human
Procedure: Potency of compounds and ADCs was evaluated using the THP1-Dual™ cells (Invivogen PN: thpd-nfis [also referred to as THP1 dual reporter cells]), which contain an IRF-Lucia luciferase reporter. Cells were cultured in RPMI-1640 (Gibco) with 10% heat-inactivated fetal bovine serum, Pen-Strep (100 U/mL-100 […], Gibco), HEPES (10 mM, Gibco)), sodium pyruvate (1 mM, Gibco), MEM non-essential amino acids (1×, Gibco), GlutaMAX (1×, Gibco), and beta-mercaptoethanol (55 μM, Gibco). Cells were plated in a 96-well flat bottom tissue culture-treated clear polystyrene plate (Corning Costar #3596) at ˜100,000 cells per well in 200 μL with the indicated concentration of the compound or ADC. The supernatant was harvested at 24 hours (compounds) or 48 hours (ADC) post plating for the reporter assay, or as indicated. To measure Lucia reporter signal, 10 µL of the supernatant was combined with 40 µL of QUANTI-Luc™ Luminescence assay reagent (Invivogen PN: rep-qlc1) in a 96-well clear flat bottom tissue culture-treated black polystyrene plate (Corning Costar #3603) and read on a Perkin Elmer Envision plate reader.
In the case of `CCc1oc(C)cc1C(=O)Nc1nc2cc(C(N)=O)cc(OCCCN(C)C(=O)CCN3C(=O)C=CC3=O)c2n1C/C=C/Cn1c(NC(=O)c2cc(C)nn2CC)nc2cc(C(N)=O)cc(OC)c21` [compound 106], the “EC50, Lucia reporter signal” value is reported as >10,000 ng/mL.
In the case of `CCn1nc(C)cc1C(=O)Nc1nc2cc(C(N)=O)cc(OC)c2n1C/C=C/Cn1c(NC(=O)c2cc(C)sn2)nc2cc(C(N)=O)cc(OCCCN(C)C(=O)CCN3C(=O)C=CC3=O)c21` [compound 107], the “EC50, Lucia reporter signal” value is reported as >10,000 ng/mL.
With `CCn1nc(C)cc1C(=O)Nc1nc2cc(C(N)=O)cc(OC)c2n1C/C=C/Cn1c(NC(=O)c2ccnn2CC)nc2cc(C(N)=O)cc(OCCCN(C)C(=O)CCN3C(=O)C=CC3=O)c21` [compound 108] the “EC50, Lucia reporter signal” value was 63.5 ng/mL (≈ 68.2 nM).
For `CCn1nc(C)cc1C(=O)Nc1nc2cc(C(N)=O)cc(OC)c2n1C/C=C/Cn1c(NC(=O)c2cc(C(F)(F)F)nn2CC)nc2cc(C(N)=O)cc(OCCCN(C)C(=O)CCN3C(=O)C=CC3=O)c21` [compound 109], the “EC50, Lucia reporter signal” value was >10,000 ng/mL.
For `CCn1nc(C)cc1C(=O)Nc1nc2cc(C(N)=O)cc(OC)c2n1C/C=C/Cn1c(NC(=O)c2c(C)cnn2C)nc2cc(C(N)=O)cc(OCCCN(C)C(=O)CCN3C(=O)C=CC3=O)c21` [compound 110], the “EC50, Lucia reporter signal” value was >10,000 ng/mL.
`CCc1nc(C)sc1C(=O)Nc1nc2cc(C(N)=O)cc(OCCCN(C)C(=O)CCN3C(=O)C=CC3=O)c2n1C/C=C/Cn1c(NC(=O)c2cc(C)nn2CC)nc2cc(C(N)=O)cc(OC)c21` [compound 111] was tested, and the “EC50, Lucia reporter signal” value was 13.2 ng/mL (≈ 13.7 nM).
With `CCc1nc(C)oc1C(=O)Nc1nc2cc(C(N)=O)cc(OCCCN(C)C(=O)CCN3C(=O)C=CC3=O)c2n1C/C=C/Cn1c(NC(=O)c2cc(C)nn2CC)nc2cc(C(N)=O)cc(OC)c21` [compound 112] the “EC50, Lucia reporter signal” value was 2 ng/mL (≈ 2.11 nM).
For `CCn1nc(C)cc1C(=O)Nc1nc2cc(C(N)=O)cc(OC)c2n1C/C=C/Cn1c(NC(=O)c2cc(C)nn2CC)nc2cc(C(N)=O)cc(OCCCN(C)C(=O)[C@H](CC(C)C)NC(=O)CCN3C(=O)C=CC3=O)c21` [compound 121], the “EC50, Lucia reporter signal” value was 3.0 ng/mL (≈ 2.84 nM).
With `CCn1nc(C)cc1C(=O)Nc1nc2cc(C(N)=O)cc(OC)c2n1C/C=C/Cn1c(NC(=O)c2cc(C)nn2CC)nc2cc(C(N)=O)cc(OCCCN(C)C(=O)[C@H](Cc3ccccc3)NC(=O)CCN3C(=O)C=CC3=O)c21` [compound 122] the “EC50, Lucia reporter signal” value was 5.6 ng/mL (≈ 5.13 nM).
With `CCn1nc(C)cc1C(=O)Nc1nc2cc(C(N)=O)cc(OC)c2n1C/C=C/Cn1c(NC(=O)c2cc(C)nn2CC)nc2cc(C(N)=O)cc(OCCCN(C)C(=O)[C@H](CCC(=O)OC)NC(=O)CCN3C(=O)C=CC3=O)c21` [compound 123] the “EC50, Lucia reporter signal” value was 1.6 ng/mL (≈ 1.47 nM).
In the case of `CCn1nc(C)cc1C(=O)Nc1nc2cc(C(N)=O)cc(OC)c2n1C/C=C/Cn1c(NC(=O)c2cc(C)nn2CC)nc2cc(C(N)=O)cc(OCCCN(C)C(=O)[C@H](Cc3ccc(OC)cc3)NC(=O)CCN3C(=O)C=CC3=O)c21` [compound 124], the “EC50, Lucia reporter signal” value is reported as 9.1 ng/mL (≈ 8.11 nM).
With `CCn1nc(C)cc1C(=O)Nc1nc2cc(C(N)=O)cc(OC)c2n1C/C=C/Cn1c(NC(=O)c2cc(C)nn2CC)nc2cc(C(N)=O)cc(OCCCN(C)C(=O)[C@@H](NC(=O)CCN3C(=O)C=CC3=O)[C@@H](C)OC)c21` [compound 125] the “EC50, Lucia reporter signal” value was 1.4 ng/mL (≈ 1.32 nM).
In the case of `CCn1nc(C)cc1C(=O)Nc1nc2cc(C(=O)O)cc(OC)c2n1C/C=C/Cn1c(NC(=O)c2cc(C)nn2CC)nc2cc(C(N)=O)cc(OCCCN(C)C(=O)CCN3C(=O)C=CC3=O)c21` [compound 126, (E)-1-(4-(5-carbamoyl-7-(3-(3-(2,5-dioxo-2,5-dihydro-1H-pyrrol-1-yl)-N-methylpropanamido)propoxy)-2-(1-ethyl-3-methyl-1H-pyrazole-5-carboxamido)-1H-benzo[d]imidazol-1-yl)but-2-en-1-yl)-2-(1-ethyl-3-methyl-1H-pyrazole-5-carboxamido)-7-methoxy-1H-benzo[d]imidazole-5-carboxylic acid], the “EC50, Lucia reporter signal” value is reported as >10,000 ng/mL.
With `CCn1nc(C)cc1C(=O)Nc1nc2cc(S(=O)(=O)NC)ccc2n1C/C=C/Cn1c(NC(=O)c2cc(C)nn2CC)nc2cc(C(N)=O)cc(OCCCN(C)C(=O)CCN3C(=O)C=CC3=O)c21` [compound 128, (E)-7-(3-(3-(2,5-dioxo-2,5-dihydro-1H-pyrrol-1-yl)-N-methylpropanamido)propoxy)-2-(1-ethyl-3-methyl-H-pyrazole-5-carboxamido)-1-(4-(2-(1-ethyl-3-methyl-1H-pyrazole-5-carboxamido)-5-(N-methylsulfamoyl)-1H-benzo[d]imidazol-1-yl)but-2-en-1-yl)-1H-benzo[d]imidazole-5-carboxamide] the “EC50, Lucia reporter signal” value was >10,000 ng/mL.
`CCn1nc(C)cc1C(=O)Nc1nc2cc(C(N)=O)cc(OC)c2n1C/C=C/Cn1c(NC(=O)c2cc(C)nn2CC)nc2cc(C(N)=O)cc(OCCCN(C(=O)CCN3C(=O)C=CC3=O)C3CC3)c21` [compound 133, (E)-1-(4-(5-carbamoyl-2-(1-ethyl-3-methyl-1H-pyrazole-5-carboxamido)-7-methoxy-1H-benzo[d]imidazol-1-yl)but-2-en-1-yl)-7-(3-(N-cyclopropyl-3-(2,5-dioxo-2,5-dihydro-1H-pyrrol-1-yl)propanamido)propoxy)-2-(1-ethyl-3-methyl-1H-pyrazole-5-carboxamido)-1H-benzo[d]imidazole-5-carboxamide] was tested, and the “EC50, Lucia reporter signal” value was 12.2 ng/mL (≈ 12.6 nM).
With `CCn1nc(C)cc1C(=O)Nc1nc2cc(C(N)=O)cc(OC)c2n1C/C=C/Cn1c(NC(=O)c2cc(C)nn2CC)nc2cc(C(N)=O)cc(OCCC[N+](C)(C)Cc3ccc(O[C@@H]4O[C@H](C(=O)O)[C@@H](O)[C@H](O)[C@H]4O)cc3NC(=O)CCNC(=O)CCN3C(=O)C=CC3=O)c21.O=C([O-])C(F)(F)F` [compound 134] the “EC50, Lucia reporter signal” value was 10.3 ng/mL.
With `CCn1nc(C)cc1C(=O)Nc1nc2cc(S(N)(=O)=O)ccc2n1C/C=C/Cn1c(NC(=O)c2cc(C)nn2CC)nc2cc(C(N)=O)cc(OCCCOC3CN(C(=O)CCN4C(=O)C=CC4=O)C3)c21` [compound 146, (E)-7-(3-((1-(3-(2,5-dioxo-2,5-dihydro-1H-pyrrol-1-yl)propanoyl)azetidin-3-yl)oxy)propoxy)-2-(1-ethyl-3-methyl-1H-pyrazole-5-carboxamido)-1-(4-(2-(1-ethyl-3-methyl-1H-pyrazole-5-carboxamido)-5-sulfamoyl-1H-benzo[d]imidazol-1-yl)but-2-en-1-yl)-1H-benzo[d]imidazole-5-carboxamide] the “EC50, Lucia reporter signal” value was >10,000 ng/mL.
In the case of `CCn1nc(C)cc1C(=O)Nc1nc2cc(S(N)(=O)=O)ccc2n1C/C=C/Cn1c(NC(=O)c2cc(C)nn2C)nc2cc(C(N)=O)cc(OCCCOC3CN(C(=O)CCN4C(=O)C=CC4=O)C3)c21` [compound 147, (E)-2-(1,3-dimethyl-1H-pyrazole-5-carboxamido)-7-(3-((1-(3-(2,5-dioxo-2,5-dihydro-1H-pyrrol-1-yl)propanoyl)azetidin-3-yl)oxy)propoxy)-1-(4-(2-(1-ethyl-3-methyl-1H-pyrazole-5-carboxamido)-5-sulfamoyl-1H-benzo[d]imidazol-1-yl)but-2-en-1-yl)-1H-benzo[d]imidazole-5-carboxamide], the “EC50, Lucia reporter signal” value is reported as >10,000 ng/mL.
In the case of `CCn1nc(C)cc1C(=O)Nc1nc2cc(S(N)(=O)=O)ccc2n1C/C=C/Cn1c(NC(=O)c2cc(C)nn2C)nc2cc(C(N)=O)cc(OCCCN(C)C(=O)CCN3C(=O)C=CC3=O)c21` [compound 148, (E)-2-(1,3-dimethyl-1H-pyrazole-5-carboxamido)-7-(3-(3-(2,5-dioxo-2,5-dihydro-1H-pyrrol-1-yl)-N-methylpropanamido)propoxy)-1-(4-(2-(1-ethyl-3-methyl-1H-pyrazole-5-carboxamido)-5-sulfamoyl-1H-benzo[d]imidazol-1-yl)but-2-en-1-yl)-1H-benzo[d]imidazole-5-carboxamide], the “EC50, Lucia reporter signal” value is reported as >10,000 ng/mL.
With `CCn1nc(C)cc1C(=O)Nc1nc2cc(C(N)=O)cc(OC)c2n1C/C=C/Cn1c(NC(=O)c2cc(C)nn2C)nc2cc(C(N)=O)cc(OCCC3CN(C(=O)CCN4C(=O)C=CC4=O)C3)c21` [compound 149, (E)-1-(4-(5-carbamoyl-2-(1,3-dimethyl-1H-pyrazole-5-carboxamido)-7-(2-(1-(3-(2,5-dioxo-2,5-dihydro-1H-pyrrol-1-yl)propanoyl)azetidin-3-yl)ethoxy)-1H-benzo[d]imidazol-1-yl)but-2-en-1-yl)-2-(1-ethyl-3-methyl-1H-pyrazole-5-carboxamido)-7-methoxy-1H-benzo[d]imidazole-5-carboxamide] the “EC50, Lucia reporter signal” value was >10,000 ng/mL.

— patent US20250255981A1, “IMMUNOMODULATORY ANTIBODY-DRUG CONJUGATES” (Seagen Inc., priority 2022, published 2025)
